Like-named read-outs stand apart in the source and are kept apart here.

One data set relates to Escherichia coli. Put plainly: Bactericidal effect test of redissolved HPLC fractions on Escherichia coli suspension, colony counting method. It is filed as cell-based. The following applies: component redissolved in ultrapure water, liquid temperature 24° C., mixed with Escherichia coli suspension, counted after 10 minutes; FIG. 5. Here is the method:
Each aqueous solution (liquid temperature: 24° C.) prepared by redissolving each component in ultrapure water was mixed with a suspension of Escherichia coli, and after 10 minutes, the viable cell count of Escherichia coli was measured by a colony counting method. The viable cell count of Escherichia coli was also measured in the same manner for the oxygen radical-unirradiated aqueous solution.

Data set [1] in a line: Bactericidal effect of oxygen radical-irradiated tryptophan-containing aqueous solution (previous research of the inventors; inference in Experimental Examples 1 to 3). The settings on record: inferred from inactive FKYN, KYN, L-Trp fractions and ESR detection of Trp⋅. It is filed as cell-based. From the text: Therefore, in this experimental example, an attempt was made to detect Trp⋅ by electron spin resonance (ESR) spectroscopy.
Here, as shown in FIG. 12 (b), it is known that Trp. is generated by the reaction between Trp and OH⋅. […] In the formulae in FIG. 12(b), X is indicated because it is thought that OH extracts H from Trp and X becomes H2O, but what is actually formed has not been accurately confirmed at this stage.
From the above-described Experimental Examples 1 to 3, it was confirmed that the substances primarily generated by irradiating the tryptophan-containing aqueous solution with oxygen radicals are FKYN and KYN. In addition, Trp⋅, considered to be a precursor of FKYN and KYN, was detected by ESR measurement from the oxygen radical-irradiated aqueous solution. Based on the above, it is considered that short-lived precursors of FKYN and KYN (Trp⋅ and Trp peroxide) are also expressed in large quantities by the oxygen radical irradiation in terms of total generation concentration, and it can be said that the above-described precursors are bactericidal substances.

For data set [2] the following is noted: maintaining a temperature of 15° C. or lower; cited from earlier work.
Data set [3] is described as follows: Lifespan of tryptophan radical in aqueous solution. The settings on record: in oxygen radical-irradiated aqueous solution. It is filed as physicochemical. The source says:
The precursor generated from Trp may be composed solely of Trp⋅, may be composed solely of Trp peroxide, or may include both Trp⋅ and Trp peroxide. […] Trp⋅ can be detected by electron spin resonance (ESR) spectroscopy. FKYN is generated by cleavage of a pyrrole ring in Trp peroxide. This cleavage occurs naturally in an aqueous solution. In other words, Trp peroxide decomposes on its own. Furthermore, since the generation of FKYN has been confirmed in the present disclosure, it is inferred that Trp peroxide is also generated, despite having a short lifespan. KYN is generated by the decomposition of FKYN.

Turning to `Nc1ccccc1C(=O)CC(N)C(=O)O` (stereo not drawn) [component P2, kynurenine], the “bactericidal effect (viable cell count of Escherichia coli)” value in the data set on Escherichia coli is listed as “not bactericidal substances”.

With tryptophan radical [Trp⋅], in data set [1], the bactericidal effect entry was “has a bactericidal effect”. For the same compound, the lifespan entry in data set [2] is recorded as “can be extended”; in data set [3] it was “short-lived substance”.

For the compound `N[C@@H](Cc1c[nH]c2ccccc12)C(=O)O` [L-Trp, L-tryptophan], the “bactericidal effect (viable cell count of Escherichia coli)” value with Escherichia coli is given as “not bactericidal substances”.

`NC(CC(=O)c1ccccc1NC=O)C(=O)O` (stereo not drawn) [component P1, formylkynurenine]: the “bactericidal effect (viable cell count of Escherichia coli)” value in the data set on Escherichia coli is “not bactericidal substances”.

Source of the values: US20260223845A1, “METHOD FOR PRODUCING TRYPTOPHAN DECOMPOSITION PRODUCT, METHOD FOR PRODUCING FORMYLKYNURENINE, METHOD FOR PRODUCING KYNURENINE, METHOD FOR PRODUCING TRYPTOPHAN RADICAL-CONTAINING AQUEOUS SOLUTION, AND BACTERICIDAL AQUEOUS SOLUTION” (NATIONAL UNIVERSITY CORPORATION TOKAI NATIONAL HIGHER …, priority 2023, published 2026).
